According to ChEMBL document CHEMBL1136834 (Bioorg Med Chem Lett, 2009):
pEC50, pIC50, pKi: −log10 of the molar value. Active and inactive are the calls of the source. No cut-off for these calls is given here.

Key:
Mu-type opioid receptor [1] = target: T1, Mu-type opioid receptor (Homo sapiens, UniProt P35372); experiment: Antagonist activity at human mu opioid receptor expressed in CHO cells assessed as inhibition of DAMGO-induced [35S]GTPgammaS binding; assay type: functional, cell-based; conditions: for pIC50: read-out: IC50
Mu-type opioid receptor [2] = target: T1, Mu-type opioid receptor; experiment: Agonist activity at human mu opioid receptor expressed in CHO cells assessed as stimulation of [35S]GTPgammaS binding relative to basal [35S]GTPgammaS binding; assay type: functional, cell-based
[3] = target: T2, Kappa-type opioid receptor (Homo sapiens, UniProt P41145); experiment: Agonist activity at human kappa opioid receptor expressed in CHO cells assessed as stimulation of [35S]GTPgammaS binding; assay type: functional, cell-based
CHO [4] = experiment: Ratio of Ki for human delta opioid receptor to Ki for human kappa opioid receptor expressed in CHO cells; assay type: cell-based
Mu-type opioid receptor [5] = target: T1, Mu-type opioid receptor; experiment: Displacement of [3H]DAMGO from human mu opioid receptor expressed in CHO cells; assay type: cell-based
[6] = target: T2, Kappa-type opioid receptor; experiment: Displacement of [3H]U69,593 from human kappa opioid receptor expressed in CHO cells; assay type: cell-based
[7] = target: Delta-type opioid receptor (Homo sapiens, UniProt P41143); experiment: Displacement of [3H]Naltrindole from human delta opioid receptor expressed in CHO cells; assay type: cell-based
CHO [8] = experiment: Ratio of Ki for human mu opioid receptor to Ki for human kappa opioid receptor expressed in CHO cells; assay type: cell-based
[9] = Displacement of [3H]Naltrindole from human delta opioid receptor expressed in CHO cells
Mu-type opioid receptor [10] = target: T1, Mu-type opioid receptor; experiment: Antagonist activity at human mu opioid receptor expressed in CHO cells assessed as inhibition of DAMGO-induced [35S]GTPgammaS binding at 10 uM; assay type: functional, cell-based
Mu-type opioid receptor [11] = target: T1, Mu-type opioid receptor; experiment: Agonist activity at human mu opioid receptor expressed in CHO cells assessed as stimulation of [35S]GTPgammaS binding; assay type: functional, cell-based

Sequence of Delta-type opioid receptor (P41143 whole entry): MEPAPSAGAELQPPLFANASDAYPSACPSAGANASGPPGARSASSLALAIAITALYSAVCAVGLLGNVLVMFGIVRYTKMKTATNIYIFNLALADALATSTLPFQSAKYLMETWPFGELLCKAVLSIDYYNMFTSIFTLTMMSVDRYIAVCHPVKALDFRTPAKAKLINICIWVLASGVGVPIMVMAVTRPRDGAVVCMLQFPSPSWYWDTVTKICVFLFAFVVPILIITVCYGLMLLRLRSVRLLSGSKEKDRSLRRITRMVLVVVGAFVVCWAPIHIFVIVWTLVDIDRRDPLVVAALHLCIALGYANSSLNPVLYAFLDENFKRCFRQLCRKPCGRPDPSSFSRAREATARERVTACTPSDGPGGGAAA
T1 sequence (P35372 whole entry): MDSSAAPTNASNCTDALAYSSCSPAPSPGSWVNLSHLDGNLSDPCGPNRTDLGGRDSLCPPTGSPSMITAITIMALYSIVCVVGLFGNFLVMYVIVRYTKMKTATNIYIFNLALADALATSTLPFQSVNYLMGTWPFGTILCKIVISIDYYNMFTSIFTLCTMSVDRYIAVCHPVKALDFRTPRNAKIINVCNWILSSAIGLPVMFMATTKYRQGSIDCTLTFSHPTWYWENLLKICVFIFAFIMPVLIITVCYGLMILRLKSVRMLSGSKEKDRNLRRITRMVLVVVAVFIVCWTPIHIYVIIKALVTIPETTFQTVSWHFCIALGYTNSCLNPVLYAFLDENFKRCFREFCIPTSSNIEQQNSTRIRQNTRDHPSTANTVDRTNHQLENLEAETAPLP
T2 sequence (P41145 whole entry): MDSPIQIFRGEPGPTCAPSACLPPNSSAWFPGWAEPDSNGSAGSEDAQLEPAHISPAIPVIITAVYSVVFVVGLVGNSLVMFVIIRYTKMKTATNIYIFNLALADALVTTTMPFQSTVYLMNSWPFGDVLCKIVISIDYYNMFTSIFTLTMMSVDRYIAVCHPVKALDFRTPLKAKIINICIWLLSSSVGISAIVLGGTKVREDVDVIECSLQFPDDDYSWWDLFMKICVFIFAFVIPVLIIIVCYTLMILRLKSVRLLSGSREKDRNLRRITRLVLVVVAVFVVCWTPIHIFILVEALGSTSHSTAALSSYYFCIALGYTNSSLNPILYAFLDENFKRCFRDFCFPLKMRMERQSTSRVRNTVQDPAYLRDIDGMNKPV

| SMILES | Imax (Mu-type opioid receptor [1]) | Emax (Mu-type opioid receptor [2]) | pEC50 [3] | Ratio Ki (CHO [4]) | pKi (Mu-type opioid receptor [5]) | pKi [6] | pKi [7] | Ratio Ki (CHO [8]) | further results |
| --- | --- | --- | --- | --- | --- | --- | --- | --- | --- |
| C[C@H]1C2Cc3ccc4[nH]nnc4c3[C@@]1(C)CCN2CC1CC1 | 98% | 0.58% | 8.07 |  |  |  |  |  | pIC50 (Mu-type opioid receptor [1]): 7.00 |
| C[C@H]1C2Cc3cc4nc[nH]c4cc3[C@@]1(C)CCN2CC1CC1 | 89% | 22% |  |  |  |  |  |  |  |
| Cc1nc2c3c(ccc2[nH]1)CC1[C@H](C)[C@]3(C)CCN1CC1CC1 |  |  |  | 310 | 8.60 | 9.29 | 6.80 | 5 |  |
| C[C@H]1C2Cc3cc4cc[nH]c4cc3[C@@]1(C)CCN2CC1CC1 |  |  |  | 36 | 7.74 | 8.15 |  | 3 | pKi [9]: 6.60 |
| C[C@H]1C2Cc3cc4nn[nH]c4cc3[C@@]1(C)CCN2CC1CC1 |  | < 20% | 7.11 |  |  |  |  |  | Imax (Mu-type opioid receptor [10]): 73% |
| C[C@@H](NC(=O)[C@@H](N)Cc1ccc(O)cc1)C(=O)NCC(=O)N(C)[C@@H](Cc1ccccc1)C(=O)NCCO [DAMGO] | inactive |  |  |  |  |  |  |  | IC50 (Mu-type opioid receptor [1]; cho): Not Active |
| C[C@H]1C2Cc3cc4nc(O)[nH]c4cc3[C@@]1(C)CCN2CC1CC1 |  |  |  | 61 | 7.22 | 7.92 | 6.14 | 5 |  |
| C[C@H]1C2Cc3cc4[nH]cnc4cc3[C@@]1(C)CCN2CC1CC1 |  |  | 8.33 |  | 9.51 | 10.20 | 8.29 |  | pIC50 (Mu-type opioid receptor [1]): 6.77; pEC50 (Mu-type opioid receptor [11]): 8.01 |
| C[C@H]1C2Cc3ccc4[nH]cnc4c3[C@@]1(C)CCN2CC1CC1 |  |  |  | 740 | 8.02 | 9.04 | 6.17 | 10 |  |
| C[C@H]1[C@H]2Cc3ccc(O)cc3[C@]1(C)CCN2CC1CC1 [CYCLAZOCINE] |  |  | 8.89 |  |  | 10.15 | 8.70 |  |  |
| Cc1nc2cc3c(cc2[nH]1)[C@@]1(C)CCN(CC2CC2)C(C3)[C@@H]1C | 100% | 55% | 8.24 |  | 9.11 | 10.30 | 7.74 |  | pIC50 (Mu-type opioid receptor [1]): 4.96; pEC50 (Mu-type opioid receptor [11]): 7.74 |
